Results on 2 molecules are retold here after US20200023206A1, “SYSTEMS AND METHODS FOR ULTRASOUND MODULATION OF NEURONS” (THE TRUSTEES OF COLUMBIA UNIVERSITY IN THE CITY OF NEW YORK, priority 2016, published 2020).

The structures appear in SMILES notation. Several values for one entry are separate records, joined by “and”; a condition that tells them apart may be missing. Identical values can stand only once. Entries after “also recorded” stand apart in the source; their conditions may differ.

Test [1] has as its system ultrasound-induced currents in HEK cells. The test can be described thus: Sodium substitution with NMDG on ultrasound-induced currents (patch clamp). The format is cell-based. To be noted: N=5 cells. The text has this:
FIGS. 21A-21B are diagrams illustrating exemplary effects of sodium substitution with N-methyl-d-glucamine (NMDG) on ultrasound-induced currents. FIG. 21A illustrates representative examples of ultrasound-induced currents in control solution (Ringers), NMDG-Ringers (without sodium), and in Ringers washout (black, first stimulus; blue, second; red, third). As embodied herein, the cell was held at −90 mV. Ultrasound stimulation parameters were 3.1 MHz, 1.88 MPa, 25 μs, 1 stimulus, 30 s intervals. FIG. 21B illustrates NMDG substitution on ultrasound-induced currents (N=5 cells). As embodied herein, responses to three stimulus presentations per condition were averaged and normalized to the mean amplitude in the control condition for each cell. Cells were held at −90 mV. […] Additionally or alternatively, and as embodied herein, an extracellular cation, such as sodium, can be used to mediate US-induced inward currents. For example and not limitation, as embodied herein, cells were stimulated with US, first in Ringers solution (with sodium), then in an N-methyl-d-glucamine (NMDG)-based Ringer solution (without sodium). NMDG can be utilized at least in part because most mammalian cation channels can be impermeable to this large cation. As embodied herein, each cell was stimulated with US five times at −90 and +30 mV alternatively. The same stimuli were applied 10 minutes following NMDG replacement of sodium and 10 minutes following washout with Ringers (with sodium). […] The first three responses were used to calculate the mean amplitude of the responses in each condition. With reference to FIGS. 21A and 21B, in 4/5 cells, a reduction in US-activated currents with NMDG substitution was shown; however, in most cases, the effect was not reversible, as shown for example in FIG. 21B. This can be due at least in part because NMDG was not effectively washed out of chamber during the washout period (˜10 minutes). Additionally or alternatively, the lack of reversibility can indicate cellular rundown over the course of the stimulations.
(In general: In patch-clamp work, channel activity is measured electrically.)

For test [2], the system named is ultrasound-induced whole-cell currents in HEK cells. As to the kind of experiment: Ruthenium red on ultrasound-induced whole-cell currents (patch clamp, Chamber B+laser). The format is cell-based. To be noted: RR 10 μM. An excerpt:
FIGS. 20A-20D are diagrams illustrating ruthenium red (RR) on ultrasound (US)-induced currents. FIG. 20A illustrates representative examples of ultrasound-induced currents before (control), during (ruthenium red), and after (washout) RR treatment (black, first stimulus; blue, second; red, third). As embodied herein, cell was held at −90 mV. Ultrasound stimulation parameters were 3.1 MHz, 1.6 MPa, 25 μs, 1 stimulus, 30 s intervals. FIG. 20B illustrates additional representative examples of ultrasound-induced currents with RR treatment. As embodied herein, cell was held at −90 mV. Ultrasound stimulation parameters were the same as FIG. 20A, except the pressure was 1.27 MPa. FIG. 20C illustrates a summary of the drug effects of ruthenium red on ultrasound-induced currents (N=5 cells). As embodied herein, responses to three stimulus presentations per condition were averaged and normalized to the mean amplitude in the control condition for each cell. Experiments were done at −70 mV or −90 mV holding potential. FIG. 20D illustrates HEK cells grouped into two populations according to ultrasound activation thresholds and ruthenium red sensitivity.
For purpose of illustration and not limitation, as embodied herein, system 1700 can be used to measure the pharmacological profile of the ultrasound-induced currents in HEK cells. Ruthenium red (RR) can be used to block non-selective cation channels, including the mechanically activated ion channels Piezol, Piezo2, as well as some TRP channels (TRPA1, TRPV3, TRPV4, TRPV5, TRPV6). As embodied herein, RR (10 μM) can block ultrasound-induced whole-cell currents in HEK cells. For example and not limitation, as embodied herein, each cell was stimulated with ultrasound five times at both −90 mV (or −70 mV) and +30 mV (or +50 mV) alternatively. The same stimulation was applied 10 minutes after RR wash-in and 10 minutes after the RR washout, respectively. […]

In the case of `CNC[C@H](O)[C@@H](O)[C@H](O)[C@H](O)CO` [NMDG, N-methyl-d-glucamine], the “cells showing reduction in US-activated currents with NMDG substitution” value in test [1] (NMDG-Ringers without sodium, 10 minutes after replacement, held at -90 mV) was “Four and 4/5”. For the same molecule, the “cells showing increased response following NMDG replacement” value in test [1] (NMDG-Ringers without sodium, held at -90 mV) is given as “one”. For the same molecule, in test [1] (un-normalized data, P=0.16 paired t test, -90 mV), the “effect of replacement of sodium with NMDG on ultrasound-induced currents” value is listed as “did not show significant effect”.

Consider `N.N.N.N.N.N.N.N.N.N.N.N.N.N.[Cl-].[Cl-].[Cl-].[Cl-].[Cl-].[Cl-].[O-2].[O-2].[Ru+3].[Ru+3].[Ru+4]` [RR, Ruthenium red], for which, in test [2] (10 minutes after wash-in, held at -90 mV or -70 mV, N=5 cells), the “effect on ultrasound-induced whole-cell currents” value is “can block; also recorded: varying effects”. In addition, in test [2] (N=5 cells analysed), the “number of cells showing enhanced US-induced currents in the presence of RR” value was “two” and the “number of cells showing reduced US-evoked currents in the presence of RR” value was “Three”.
